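1) Cells in 96-well plates. 2) Compound, 48 h, 5 concentrations. 3) Linear interpolation between surrounding doses. 4) Unreached endpoint = highest concentration. TGI denotes the concentration required for complete inhibition of growth.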
Assays:
Assay in all cases: inhibition of tumour cell growth, NCI panel, 48 h
HCT-116 colon = test system: HCT-116 colon
SK-MEL-28 melanoma = test system: SK-MEL-28 melanoma
DLD-1 colon = test system: DLD-1 colon
ACHN renal = test system: ACHN renal
SNB-19 CNS = test system: SNB-19 CNS
CCRF-CEM leukemia = test system: CCRF-CEM leukemia
OVCAR-3 ovarian = test system: OVCAR-3 ovarian
SK-MEL-5 melanoma = test system: SK-MEL-5 melanoma
HL-60(TB) leukemia = test system: HL-60(TB) leukemia
SNB-75 CNS = test system: SNB-75 CNS
LXFL 529 NSCLC = test system: LXFL 529 NSCLC
SW-620 colon = test system: SW-620 colon
NCI-H23 lung = test system: NCI-H23 lung
NCI-H460 lung = test system: NCI-H460 lung
EKVX NSCLC = test system: EKVX NSCLC
XF 498 CNS = test system: XF 498 CNS
COLO 205 colon = test system: COLO 205 colon
MALME-3M melanoma = test system: MALME-3M melanoma
A498 renal = test system: A498 renal
A549 NSCLC = test system: A549 NSCLC
HCT-15 colon = test system: HCT-15 colon
SF-268 CNS = test system: SF-268 CNS
RPMI-8226 leukemia = test system: RPMI-8226 leukemia
CAKI-1 renal = test system: CAKI-1 renal
SN12C renal = test system: SN12C renal
SNB-78 CNS = test system: SNB-78 CNS
M19-MEL melanoma = test system: M19-MEL melanoma
DMS 273 small cell lung = test system: DMS 273 small cell lung
DMS 114 small cell lung = test system: DMS 114 small cell lung
SF-295 CNS = test system: SF-295 CNS
IGROV1 ovarian = test system: IGROV1 ovarian
NCI-H226 lung = test system: NCI-H226 lung
NCI-H522 lung = test system: NCI-H522 lung
TK-10 renal = test system: TK-10 renal
LOX IMVI melanoma = test system: LOX IMVI melanoma
RXF 393 renal = test system: RXF 393 renal
HOP-62 NSCLC = test system: HOP-62 NSCLC
UACC-62 melanoma = test system: UACC-62 melanoma
HOP-92 NSCLC = test system: HOP-92 NSCLC
M14 melanoma = test system: M14 melanoma
K-562 leukemia = test system: K-562 leukemia
KM20L2 colon = test system: KM20L2 colon
U251 CNS = test system: U251 CNS
HT29 colon = test system: HT29 colon
RXF-631 renal = test system: RXF-631 renal
UACC-257 melanoma = test system: UACC-257 melanoma
786-0 renal = test system: 786-0 renal
SF-539 CNS = test system: SF-539 CNS
SK-OV-3 ovarian = test system: SK-OV-3 ovarian
KM12 colon = test system: KM12 colon
SK-MEL-2 melanoma = test system: SK-MEL-2 melanoma
OVCAR-8 ovarian = test system: OVCAR-8 ovarian
OVCAR-5 ovarian = test system: OVCAR-5 ovarian
UO-31 renal = test system: UO-31 renal
OVCAR-4 ovarian = test system: OVCAR-4 ovarian
MOLT-4 leukemia = test system: MOLT-4 leukemia
SR leukemia = test system: SR leukemia
HOP-18 NSCLC = test system: HOP-18 NSCLC
HCC-2998 colon = test system: HCC-2998 colon

Measured: TGI

CC(C)c1cccc2sc(NC(=O)C(=O)CC(=O)c3ccc(F)cc3)nc12
not listed: MOLT-4 leukemia | SR leukemia | HOP-18 NSCLC | HCC-2998 colon
> 100 µM: all other assays above

O=C(O)c1cc2c3c(c1)[C@H]1C=CC[C@H]1CN3CC1CC=CC21 (some centres not stated)
not listed: SK-MEL-28 melanoma | RXF-631 renal
> 100 µM: all other assays above

— PubChem BioAssay (NCI)
